{
  "source": "paper PMC8658963",
  "about": "“Synthesis and Evaluation of Trypanocidal Activity of Chromane-Type Compounds and Acetophenones” (Molecules, 2021)",
  "key": {"[1]": {"test_system": "intracellular amastigotes of T. cruzi (Tulahuen strain transfected with the β-galactosidase gene)", "experiment": "Anti-trypanosomal activity, β-galactosidase readout in infected U937 macrophages, 72 h", "format": "cell-based, Trypanosoma cruzi", "conditions": "for EC50: intracellular amastigotes of T. cruzi Tulahuen in U937 macrophages, 72 h, average ± SD (SEM), read-out: Trypanocidal Activity (EC50)", "protocol": "This activity was carried out in intracellular amastigotes of T. cruzi (Tulahuen strain transfected with the β-galactosidase gene. Briefly, metacyclic trypomastigotes were cultured at 26 °C for ten days in a modified NNN (Novy−McNeal−Nicolle) medium. U937 cells were seeded in 96-well tissue culture plates at a density of 2.5 × 10^4 cells in 100 μL of complete RPMI-1640 medium/well and exposed for 24 h to phorbol myristate acetate (1 ng/mL) to induce transformation of monocytes into macrophages. Cells were infected with trypomastigotes (5 parasites per cell) and incubated for 24 h at 37 °C, 5% CO2. Wells were washed twice with warm phosphate buffer solution (PBS) to remove noninternalized parasites, and then were added 100 μL of complete RPMI-1640 medium and 100 μL of each concentration of compound (50, 12.5, 3.125 μM). BNZ, at the same concentrations, was used as internal control for trypanocidal activity (positive control), and nontreated cells as controls for infection (negative control). After 72 h of incubation 37 °C, 5% CO2, the viability of intracellular amastigotes was determined by measuring the β-galactosidase activity. For this, 100 μM of Chlorophenol red-β-D- galactopyranoside (CPRG), and 0.1% Nonidet P-40 was added to each well and incubated for 4 h at 37 °C, […] protected from light. After that, measurement β-galactosidase activity was measured at 570 nm on a Varioskan, Thermo spectrophotometer. Nonspecific absorbance was subtracted from the measurement. Infected cells exposed to benznidazole were used as controls for anti-trypanosomal activity. Determinations were done in triplicate with at least two independent experiments."}, "[2]": {"test_system": "human monocyte cell line U-937 (ATCC CRL-1593.2)", "experiment": "in vitro", "conditions": "human, 72 h", "protocol": "(§1) Cytotoxicity was evaluated in the human monocyte cell line U-937 (ATCC CRL-1593.2) at the exponential growth phase, adjusted at 1 × 10^5 cells/mL in complete RPMI-1640 medium (RPMI-1640 enriched with 200 mM L-glutamine, 10% inactivated fetal bovine serum (FBS) and 1% of a mixture of 10,000 IU/mL penicillin plus […] streptomycin). Then, in each well of a 96-well tissue culture plate were dispensed […] of cells plus […] of each compound (as one of six serials 1:2 dilution concentrations starting at 368 µM prepared in the same medium). Doxorubicin was included as an internal positive control under the same dilution pattern, starting at 18 µM whereas unexposed cells were used as negative controls. Afterward, cells were incubated for 72 h at 37 °C and 5% CO2. Cell viability was assayed by the MTT reduction assay according to the optical density (O.D) at 570 nm of the resulting reduction of formazan in a Varioskan Flash Multimode Reader (Thermo Scientific, Waltham, MA, USA). Nonspecific absorbance was corrected by subtracting the O.D of the blank solution that corresponded to complete RPMI-1640 medium. The assay was done in triplicate in at least two independent experiments.\n(§2) The cytotoxicity was expressed as the medial lethal concentration (LC50), while the trypanocidal activity was defined as the median effective concentration (EC50) according to the percentage of inhibition of cells and parasites, respectively, as described elsewhere. Both LC50 and EC50 were calculated by the Probit analysis. […] Similarly, the trypanocidal activity was graded according to EC50 values, based on the hit criteria proposed by others into high when EC50 was lower than 10 μM, moderate when EC50 values were higher than 10 μM but lower than 50 μM and, low when EC50 was higher than 50 μM. The relation between cytotoxicity and trypanocidal activity was expressed as the index of selectivity (IS) that corresponded to the ratio when dividing the LC50 by the EC50."}, "in vitro": {"experiment": "in vitro", "conditions": "human, Cytotoxicity (LC50)", "protocol": "as §1, §2"}},
  "note": "Like-named read-outs stand apart in the source and are kept apart here.",
  "data": [
    {"smiles": "CC(=O)c1c(O)cccc1O", "note": "[Compound 7, 1-(2,6-Dihydroxyphenyl)ethan-1-one]", "values": [
      {"measurement": "SI (index of selectivity, IS = LC50/EC50)", "setting": "[1]; LC50 in U937 cells divided by EC50 against T. cruzi", "value": 1.5},
      {"measurement": "Trypanocidal activity compared with the control drug BNZ", "setting": "[1]; T. cruzi intracellular amastigotes, result in words", "value": "much better trypanocidal activity than the control drug BNZ"},
      {"measurement": "EC50", "setting": "[1]; Trypanosoma cruzi, TULAHUEN, U-937, 72 h", "value": "< 10", "unit": "µM"},
      {"measurement": "EC50", "setting": "[1]", "value": "10.5 ± 0.6", "unit": "µM"},
      {"measurement": "CC50", "setting": "[2]", "value": "15.3 ± 1.9", "unit": "µM"},
      {"measurement": "CC50 at 72 h", "setting": "in vitro", "value": "10.5 ± 0.6", "unit": "µM"}
    ]}
  ]
}
